Reference: ChEMBL document CHEMBL3885861, “Open TG-GATES”

Organism: Rattus norvegicus
Assay: Open TG-GATES - Regimen: Daily Repeat
Type: toxicity, organism-based, Sprague-Dawley
Design: regimen Daily Repeat, gender Male, age 6 weeks
Conditions: in vivo, po, 1000 mg/kg, route gavage, dose level High; for APTT / Bas / Eos / Fbg / Hb / Ht / Lym / MCH / MCHC / MCV / Mono / Neu / PT / Plat / RBC / Ret / WBC: tissue Blood; for KIDNEY_L / KIDNEY_R / KIDNEY_TOTAL: tissue Kidney; for LIVER: tissue Liver; for A/G / ALP / ALT / AST / BUN / CRE / Ca / Cl / DBIL / GLC / IP / K / LDH / Na / PL / RALB / TBIL / TC / TG / TP / gamma-GTP: tissue Plasma

CNC(=C[N+](=O)[O-])NCCSCc1ccc(CN(C)C)o1 [RANITIDINE]
TERMINAL_BW (72 h, time 3 day): 237.1 g
APTT (72 h, time 3 day): 20.1 s
Bas (72 h, time 3 day): 0%
Eos (72 h, time 3 day): 1%
Fbg (72 h, time 3 day): 231.6 mg/dL
Hb (72 h, time 3 day): 13.6 g/dL
Ht (72 h, time 3 day): 39.8%
Lym (72 h, time 3 day): 78.4%
MCH (72 h, time 3 day): 21.5 pg
MCHC (72 h, time 3 day): 34.1%
MCV (72 h, time 3 day): 63.1 fL
Mono (72 h, time 3 day): 3%
Neu (72 h, time 3 day): 16%
PT (72 h, time 3 day): 12 s
Plat (72 h, time 3 day): 117.3 x10_4/uL
RBC (72 h, time 3 day): 631.4 x10_4/ul
Ret (72 h, time 3 day): 4.8%
WBC (72 h, time 3 day): 85 x10_2/uL
KIDNEY_L (72 h, time 3 day): 1 g
KIDNEY_R (72 h, time 3 day): 1 g
KIDNEY_TOTAL (72 h, time 3 day): 2 g
LIVER (72 h, time 3 day): 12 g
A/G (72 h, time 3 day): 1.6
ALP (72 h, time 3 day): 907.8 IU/L
ALT (72 h, time 3 day): 41.2 IU/L
AST (72 h, time 3 day): 69.4 IU/L
BUN (72 h, time 3 day): 14.8 mg/dL
CRE (72 h, time 3 day): 0.4 mg/dL
Ca (72 h, time 3 day): 11 mg/dL
Cl (72 h, time 3 day): 103.6 meq/L
DBIL (72 h, time 3 day): 0.098 mg/dL
GLC (72 h, time 3 day): 198.4 mg/dL
IP (72 h, time 3 day): 8 mg/dL
K (72 h, time 3 day): 4 meq/L
LDH (72 h, time 3 day): 216.6 IU/L
Na (72 h, time 3 day): 140.6 meq/L
PL (72 h, time 3 day): 148.4 mg/dL
RALB (72 h, time 3 day): 3.4 g/dL
TBIL (72 h, time 3 day): 0.2 mg/dL
TC (72 h, time 3 day): 80 mg/dL
TG (72 h, time 3 day): 107.4 mg/dL
TP (72 h, time 3 day): 5.6 g/dL
gamma-GTP (72 h, time 3 day): 1.4 IU/L
TERMINAL_BW ([…], time 7 day): 264.9 g
TERMINAL_BW ([…], time 14 day): 314.9 g
TERMINAL_BW ([…], time 28 day): 379.9 g
APTT ([…], time 7 day): 19.6 s
Bas ([…], time 7 day): 0%
Eos ([…], time 7 day): 0.8%
Fbg ([…], time 7 day): 216.8 mg/dL
Hb ([…], time 7 day): 13.9 g/dL
Ht ([…], time 7 day): 39.1%
Lym ([…], time 7 day): 82.2%
MCH ([…], time 7 day): 21.7 pg
MCHC ([…], time 7 day): 35.5%
MCV ([…], time 7 day): 61.2 fL
Mono ([…], time 7 day): 1.6%
Neu ([…], time 7 day): 12.8%
PT ([…], time 7 day): 12.5 s
Plat ([…], time 7 day): 121.8 x10_4/uL
RBC ([…], time 7 day): 639.4 x10_4/ul
Ret ([…], time 7 day): 5%
WBC ([…], time 7 day): 99 x10_2/uL
APTT ([…], time 14 day): 18.9 s
Bas ([…], time 14 day): 0%
Eos ([…], time 14 day): 1%
Fbg ([…], time 14 day): 234.2 mg/dL
Hb ([…], time 14 day): 14.5 g/dL
Ht ([…], time 14 day): 40.3%
Lym ([…], time 14 day): 77.8%
MCH ([…], time 14 day): 21.2 pg
MCHC ([…], time 14 day): 36.1%
MCV ([…], time 14 day): 58.7 fL
Mono ([…], time 14 day): 2.4%
Neu ([…], time 14 day): 18%
PT ([…], time 14 day): 12.1 s
Plat ([…], time 14 day): 118.7 x10_4/uL
RBC ([…], time 14 day): 686 x10_4/ul
Ret ([…], time 14 day): 4.3%
WBC ([…], time 14 day): 87.7 x10_2/uL
APTT ([…], time 28 day): 19.8 s
Bas ([…], time 28 day): 0%
Eos ([…], time 28 day): 1.2%
Fbg ([…], time 28 day): 234.2 mg/dL
Hb ([…], time 28 day): 15.5 g/dL
Ht ([…], time 28 day): 43.3%
Lym ([…], time 28 day): 77.2%
MCH ([…], time 28 day): 20.1 pg
MCHC ([…], time 28 day): 35.9%
MCV ([…], time 28 day): 56.2 fL
Mono ([…], time 28 day): 1.8%
Neu ([…], time 28 day): 18.6%
PT ([…], time 28 day): 12.2 s
Plat ([…], time 28 day): 113 x10_4/uL
RBC ([…], time 28 day): 769.8 x10_4/ul
Ret ([…], time 28 day): 2.2%
WBC ([…], time 28 day): 104.7 x10_2/uL
KIDNEY_L ([…], time 7 day): 1.1 g
KIDNEY_R ([…], time 7 day): 1.2 g
KIDNEY_TOTAL ([…], time 7 day): 2.3 g
KIDNEY_L ([…], time 14 day): 1.2 g
KIDNEY_R ([…], time 14 day): 1.2 g
KIDNEY_TOTAL ([…], time 14 day): 2.4 g
KIDNEY_L ([…], time 28 day): 1.4 g
KIDNEY_R ([…], time 28 day): 1.4 g
KIDNEY_TOTAL ([…], time 28 day): 2.8 g
LIVER ([…], time 7 day): 12.3 g
LIVER ([…], time 14 day): 14.2 g
LIVER ([…], time 28 day): 15.4 g
A/G ([…], time 7 day): 1.5
ALP ([…], time 7 day): 852.4 IU/L
ALT ([…], time 7 day): 37.2 IU/L
AST ([…], time 7 day): 65.4 IU/L
BUN ([…], time 7 day): 16.8 mg/dL
CRE ([…], time 7 day): 0.4 mg/dL
Ca ([…], time 7 day): 10.7 mg/dL
Cl ([…], time 7 day): 103.6 meq/L
DBIL ([…], time 7 day): 0.088 mg/dL
GLC ([…], time 7 day): 224.4 mg/dL
IP ([…], time 7 day): 7.8 mg/dL
K ([…], time 7 day): 3.7 meq/L
LDH ([…], time 7 day): 169.6 IU/L
Na ([…], time 7 day): 140.6 meq/L
PL ([…], time 7 day): 137.2 mg/dL
RALB ([…], time 7 day): 3.3 g/dL
TBIL ([…], time 7 day): 0.1 mg/dL
TC ([…], time 7 day): 76.8 mg/dL
TG ([…], time 7 day): 82.4 mg/dL
TP ([…], time 7 day): 5.5 g/dL
gamma-GTP ([…], time 7 day): 0.8 IU/L
A/G ([…], time 14 day): 1.4
ALP ([…], time 14 day): 785 IU/L
ALT ([…], time 14 day): 37.2 IU/L
AST ([…], time 14 day): 62.8 IU/L
BUN ([…], time 14 day): 17.6 mg/dL
CRE ([…], time 14 day): 0.5 mg/dL
Ca ([…], time 14 day): 10.5 mg/dL
Cl ([…], time 14 day): 103 meq/L
DBIL ([…], time 14 day): 0.08 mg/dL
GLC ([…], time 14 day): 193 mg/dL
IP ([…], time 14 day): 7.4 mg/dL
K ([…], time 14 day): 4.2 meq/L
LDH ([…], time 14 day): 205.8 IU/L
Na ([…], time 14 day): 141.8 meq/L
PL ([…], time 14 day): 137.8 mg/dL
RALB ([…], time 14 day): 3.5 g/dL
TBIL ([…], time 14 day): 0.1 mg/dL
TC ([…], time 14 day): 66.4 mg/dL
TG ([…], time 14 day): 104 mg/dL
TP ([…], time 14 day): 5.8 g/dL
gamma-GTP ([…], time 14 day): 1.2 IU/L
A/G ([…], time 28 day): 1.3
ALP ([…], time 28 day): 562.8 IU/L
ALT ([…], time 28 day): 38.8 IU/L
AST ([…], time 28 day): 61 IU/L
BUN ([…], time 28 day): 17.2 mg/dL
CRE ([…], time 28 day): 0.5 mg/dL
Ca ([…], time 28 day): 10.5 mg/dL
Cl ([…], time 28 day): 102.2 meq/L
DBIL ([…], time 28 day): 0.094 mg/dL
GLC ([…], time 28 day): 198.6 mg/dL
IP ([…], time 28 day): 7.2 mg/dL
K ([…], time 28 day): 3.8 meq/L
LDH ([…], time 28 day): 114.2 IU/L
Na ([…], time 28 day): 141.6 meq/L
PL ([…], time 28 day): 142.6 mg/dL
RALB ([…], time 28 day): 3.5 g/dL
TBIL ([…], time 28 day): 0.2 mg/dL
TC ([…], time 28 day): 70.4 mg/dL
TG ([…], time 28 day): 96 mg/dL
TP ([…], time 28 day): 6.1 g/dL
gamma-GTP ([…], time 28 day): 0.8 IU/L
